Laboratory results reported in paper PMC3492916 (Molecular Nutrition & Food Research, 2011).
“Also recorded” adds a separate entry of the source.

Legend:
[1] = test system: PBCEC; assay: Fluorescence microscopy of occludin and cell nuclei; assay type: cell-based, porcine; conditions: 10 μM a/b, 24 h
[2] = test system: PBCEC monolayers; assay: Active transport study, equal concentrations in both compartments; conditions: for Enrichment of substance concentration in one compartment: ET 10 μM, EC 1 μM a/b, over 48 h
[3] = as above; conditions: pig, PBCEC monolayers
[4] = test system: PBCEC; assay: Cytotoxicity; assay type: cell-based, porcine; conditions: 24 h; for Impact on cell viability (CCK-8 assay): up to a concentration of 20 mM (so in the source), with corresponding -inine form
[5] = test system: PBCEC monolayer; assay: TEER measurement; assay type: cell-based, porcine; conditions: for Influence on barrier integrity (TEER): 10 μM (a) or 10 μM (a/b), in comparison to the control
[6] = test system: PBCEC monolayers; assay: Permeability across PBCEC monolayers on Transwell filters; conditions: apical addition; for Time of maximum of permeation into basolateral compartment / Maximum of permeation into basolateral compartment: EM and ET 10 μM, EC 1 μM; for Maximum of permeation into basolateral compartment: t = 0 h as 100%
[7] = as above; conditions: pig
[8] = test system: Pgp; conditions: cited from earlier work
[9] = target: T1, BCRP/ABCG2 (Sus scrofa, UniProt Q8MIB3); assay: Active transport study with inhibitor Fumitremorgin C; assay type: in vitro ADME, porcine
T1 sequence (Q8MIB3 1-656): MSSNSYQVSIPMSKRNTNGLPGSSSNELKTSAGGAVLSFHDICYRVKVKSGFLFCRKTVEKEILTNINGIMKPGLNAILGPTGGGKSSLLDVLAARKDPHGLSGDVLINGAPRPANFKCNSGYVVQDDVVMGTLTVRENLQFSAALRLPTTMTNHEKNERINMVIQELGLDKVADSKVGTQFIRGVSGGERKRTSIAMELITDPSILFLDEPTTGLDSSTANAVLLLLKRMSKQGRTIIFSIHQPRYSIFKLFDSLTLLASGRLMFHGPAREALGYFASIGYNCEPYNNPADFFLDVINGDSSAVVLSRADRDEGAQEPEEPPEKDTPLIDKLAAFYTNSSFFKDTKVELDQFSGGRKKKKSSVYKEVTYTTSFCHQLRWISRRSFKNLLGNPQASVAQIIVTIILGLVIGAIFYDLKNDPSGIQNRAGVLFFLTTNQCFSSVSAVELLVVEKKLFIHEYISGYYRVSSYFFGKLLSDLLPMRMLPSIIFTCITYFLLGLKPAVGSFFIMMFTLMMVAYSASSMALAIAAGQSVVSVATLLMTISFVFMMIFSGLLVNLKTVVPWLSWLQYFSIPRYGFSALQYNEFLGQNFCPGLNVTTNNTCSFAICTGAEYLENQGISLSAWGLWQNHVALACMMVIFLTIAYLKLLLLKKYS

[10] = target: P-glycoprotein (Sus scrofa, UniProt K7GMM7); assay: Active transport study with inhibitor PSC 833; assay type: in vitro ADME, porcine
[11] = cited from earlier work
[12] = test system: Caco-2; conditions: Caco-2 model, after 6 h; cited from earlier work
[13] = 10 μM inhibitor a/b, preincubated 1 h, EM 10 μM a/b

Sequence of P-glycoprotein (K7GMM7 1-1248): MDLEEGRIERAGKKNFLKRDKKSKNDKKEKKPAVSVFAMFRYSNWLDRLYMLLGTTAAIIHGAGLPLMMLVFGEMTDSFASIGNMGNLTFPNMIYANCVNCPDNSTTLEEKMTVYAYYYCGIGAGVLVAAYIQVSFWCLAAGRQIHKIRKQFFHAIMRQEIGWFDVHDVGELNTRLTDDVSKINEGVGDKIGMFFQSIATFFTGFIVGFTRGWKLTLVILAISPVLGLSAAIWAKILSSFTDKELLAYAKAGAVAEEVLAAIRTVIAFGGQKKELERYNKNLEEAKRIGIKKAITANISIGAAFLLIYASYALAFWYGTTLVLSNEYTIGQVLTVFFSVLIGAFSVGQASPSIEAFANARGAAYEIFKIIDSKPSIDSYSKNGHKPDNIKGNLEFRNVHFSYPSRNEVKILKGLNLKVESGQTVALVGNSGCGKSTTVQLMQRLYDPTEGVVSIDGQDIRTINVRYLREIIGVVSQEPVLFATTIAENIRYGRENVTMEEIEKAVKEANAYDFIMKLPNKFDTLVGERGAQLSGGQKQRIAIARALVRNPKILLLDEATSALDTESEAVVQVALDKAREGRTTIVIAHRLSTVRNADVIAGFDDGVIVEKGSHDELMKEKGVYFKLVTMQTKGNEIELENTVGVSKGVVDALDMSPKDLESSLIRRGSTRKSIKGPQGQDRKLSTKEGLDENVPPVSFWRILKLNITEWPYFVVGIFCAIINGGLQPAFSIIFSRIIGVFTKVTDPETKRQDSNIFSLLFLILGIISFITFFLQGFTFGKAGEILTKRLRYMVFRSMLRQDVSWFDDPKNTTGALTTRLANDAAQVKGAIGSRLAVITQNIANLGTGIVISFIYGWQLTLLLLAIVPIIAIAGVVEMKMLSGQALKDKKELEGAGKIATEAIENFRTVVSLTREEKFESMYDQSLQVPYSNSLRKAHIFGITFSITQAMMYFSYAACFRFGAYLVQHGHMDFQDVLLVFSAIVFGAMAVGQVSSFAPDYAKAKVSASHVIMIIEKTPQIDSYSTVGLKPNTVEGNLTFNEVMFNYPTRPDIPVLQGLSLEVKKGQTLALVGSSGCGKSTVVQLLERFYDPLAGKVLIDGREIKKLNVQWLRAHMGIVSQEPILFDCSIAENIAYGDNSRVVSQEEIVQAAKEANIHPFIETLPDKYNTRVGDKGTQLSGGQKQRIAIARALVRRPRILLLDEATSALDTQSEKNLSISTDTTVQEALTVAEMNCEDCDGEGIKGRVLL

## CC(C)[C@@]1(NC(=O)[C@@H]2C=C3c4cccc5[nH]cc(c45)C[C@H]3N(C)C2)O[C@@]2(O)[C@@H]3CCCN3C(=O)[C@H](Cc3ccccc3)N2C1=O [EC, ergocristine]
[1]
  Immunostaining of occludin and cell nuclei: disrupted cells could be visualized by the absence of nuclei
[2]
  Enrichment of substance concentration in one compartment: no enrichment
[3]
  recovery at 48 h, 1 µM: 60%
[4]; CCK-8
  Concentration at which significant differences in cell viability start: 5 µM
[4]; CCK-8, Figure 2 legend
  Concentration at which significant results in cell viability start: 5000 µM
[4]; from 5 μM, in equilibrium with -inine form
  Cell viability (CCK-8 assay): 85 % of the control
[5]; 1 μM (a)
  Effect on barrier integrity (TEER): no effect
[5]; 1 μM (a/b)
  TEER, % of initial TEER: about 80%
[5]; 5 μM (a)
  TEER, % of initial TEER: about 80%
[5]; 5 μM (a/b)
  TEER, % of the starting value: 50–70%
[5]; 5 μM (b)
  TEER, % of the starting value: 50–70%
[5]; 10 μM (a)
  TEER, % of the starting value: 50–70%
[5]; 10 μM (b)
  TEER, % of the starting value: 50–70%
[5]; 10 mM (so in the source) a/b, 24 h, samples of immunostaining, control >1000
  TEER of incubated samples: < 200 Ωcm^2
[6]; 1 μM, after 24 h
  Concentration in basolateral compartment: 32%
[6]
  Time of maximum of permeation into basolateral compartment: 6 h
  Maximum of permeation into basolateral compartment: 49%
[7]
  Papp A→B: 20.5 ×10⁻⁶ cm/s
  Papp B→A: 26.1 ×10⁻⁶ cm/s

## C[C@@H](CO)NC(=O)[C@@H]1C=C2c3cccc4[nH]cc(c34)C[C@H]2N(C)C1 [EM, ergometrine]
[2]; 10 μM a/b, after 24 h
  Concentration in apical compartment, % of the initial concentration: about 117%
[2]; 10 μM a/b, after 48 h
  Total enrichment in apical compartment: 130%
[2]; 10 μM a/b, during the whole experiment (48 h)
  Substance in cell lysate: no EM was detectable in cell lysate
[8]
  Pgp inhibition: Pgp inhibitors
[4]
  Impact on cell viability (CCK-8 assay): no impact
[5]; 1 μM (a), 24 h
  Influence on barrier integrity (TEER): No influence; also recorded: no impact on barrier integrity
[9]; concluded from total inhibition by FTC
  Transporter substrate property: substrate for BCRP/ABCG2 transporter
[6]; 10 μM
  Time before which first traces were not detectable in basolateral compartment: ≥ 6 h
[6]
  Time of maximum of permeation into basolateral compartment: 24 h
  Maximum of permeation into basolateral compartment: 29%
[7]
  Papp A→B: 1.05 ×10⁻⁶ cm/s
  Papp B→A: 6.05 ×10⁻⁶ cm/s
[10]; EM 10 μM a/b with PSC 833 10 μM a/b, after 48 h
  Concentration in apical compartment, % of the initial concentration: 110%

## CN1C[C@H](C(=O)N[C@]2(C)O[C@@]3(O)[C@@H]4CCCN4C(=O)[C@H](Cc4ccccc4)N3C2=O)C=C2c3cccc4[nH]cc(c34)C[C@H]21 [ET, ergotamine]
[2]
  Enrichment of substance concentration in one compartment: no enrichment
[8]
  Pgp inhibition: Pgp inhibitors
[11]; 18 patients, different application methods
  Detection in CSF: no ergotamine in CSF
[11]; humans, peptide ergot alkaloids like ergotamine
  Oral bioavailability: less than 2%
[11]; ten patients
  Concentration in cerebrospinal fluid (CSF): 0.4 ng/mL
[4]
  Impact on cell viability (CCK-8 assay): no impact
[5]; 1 μM (a), 24 h
  Influence on barrier integrity (TEER): No influence; also recorded: no impact on barrier integrity
[6]
  Time of maximum of permeation into basolateral compartment: 12 h
  Maximum of permeation into basolateral compartment: 40%
[7]
  Papp A→B: 11.9 ×10⁻⁶ cm/s
  Papp B→A: 18 ×10⁻⁶ cm/s
  efflux ratio at 24 h, 10 μM: < 2

## COc1ccc2c3c([nH]c2c1)[C@H](C=C(C)C)N1C(=O)[C@@H]2CCCN2C(=O)[C@@H]1C3 [FTC, Fumitremorgin C]
[9]; [13]
  Influence of inhibitor on the transport of EM: total inhibition of the transport process

## C/C=C/C[C@@H](C)C(=O)[C@H]1C(=O)N[C@@H](C(C)C)C(=O)N(C)CC(=O)N(C)[C@@H](CC(C)C)C(=O)N[C@@H](C(C)C)C(=O)N(C)[C@@H](CC(C)C)C(=O)N[C@@H](C)C(=O)N[C@H](C)C(=O)N(C)[C@@H](CC(C)C)C(=O)N(C)[C@@H](CC(C)C)C(=O)N(C)[C@@H](C(C)C)C(=O)N1C [PSC, PSC 833]
[10]; [13]
  Influence of inhibitor on the transport of EM: lagging of enrichment in the apical compartment

## ergovaline/ ergovalinine
[12]
  Initial concentration reaching the other compartment: 40%
